According to patent publication EP3409293B1, “COMPLEXES COMPRISING PHOSPHOLIPIDS, WATER-SOLUBLE DEXTRIN FIBERS AND ANTIOXIDANT ACTIVE PRINCIPLES OF NATURAL ORIGIN, THEIR PREPARATION AND USE IN ORAL FORMULATIONS” (UNIVERSITA' DEGLI STUDI DI CAGLIARI, priority 2017, dated 2018):

Columns and labels:
[1] = tested on: Caco2; assay: Biocompatibility on Caco2 cells, 48 hours, MTT (curcumin, EU-nutriosomes); assay type: cell-based, human; details: Caco2, 48 hours, higher dilutions; % of untreated cells
Experimental: The biocompatibility of curcumin in dispersion or carried in liposomes or EU-nutriosomes was measured by treating intestinal cells (Caco2) with the vesicular formulations at different dilutions for 48 hours. At the end of this incubation period, cell viability was measured by MTT test, and was expressed as a percentage with respect to the untreated cells (negative control). The results are shown in the annexed Figure 13. At the lowest dilution (10 µg/mL of curcumin), viability is ~75%, regardless of the tested sample; at higher dilutions, the viability of the cells treated with curcumin in dispersion remains around 80%, while that of the cells treated with the nutriosomes is greater (~105%) and equal to that of the reference liposomes, which are generally known to be a non-toxic and biocompatible carrier. Probably all vesicular systems are capable of modulating the curcumin uptake within the cells, thereby reducing any toxic effect thereof. By using a non-toxic dilution (1 µg/mL of curcumin), we studied the ability of the formulations to promote the antioxidizing efficacy of the polyphenol. As shown in the previous example, the cells were stressed with hydrogen peroxide and simultaneously treated with curcumin in dispersion or incorporated in the vesicles (see annexed Figure 14). […]

[2] = Plasmatic concentration of curcumin in rats after gavage; assay type: in vivo, WISTAR male rats; details: 2 mL containing 20 mg/mL of curcumin, during the 8 hours of study
Experimental: Curcumin in dispersion or carried in liposomes or nutriosomes was administered to rats in vivo, and both the local accumulation and the plasmatic concentration were measured. The experiments were conducted by using WISTAR male rats (8-12 weeks of age and 230-250 g). The animals were treated in accordance with the European Union regulations concerning the use of laboratory animals. The protocols have been approved by the Istitutional Animal Care and Use Committee of the University of Valencia (Spain). Throughout the length of the study, the animals were kept in a thermally conditioned chamber, with a light/dark cycle of 12 hours and free access to water and food. […] In order to measure the quantity of curcumin accumulated in the intestine, the rats were sacrificed 4 hours after administration, and the gastrointestinal apparatus was removed and divided into the different segments. […]
In order to quantify a plasmatic concentration of curcumin when administering the aqueous dispersion, it was necessary to double the concentration; therefore, 2 mL of dispersion were administered, containing 20 mg/mL of curcumin instead of 10 mg/mL as in liposomes and nutriosomes (Figure 10). Notwithstanding this, the measured plasmatic concentration is always very low, i.e. ∼10 ng/mL during the 8 hours of study. […]

[3] = tested on: Caco2 cells; assay: Protection of Caco2 cells against hydrogen peroxide oxidative damage (MTT), curcumin formulations; assay type: cell-based, human; details: Caco2 cells treated with hydrogen peroxide and simultaneously with curcumin formulation, 4 hours; % of untreated cells
Experimental: A study was carried out to evaluate the in vitro ability of the nutriosomes to improve the protective efficacy of curcumin against the oxidative damage induced in Caco2 cells by hydrogen peroxide (Figure 8). The cells were sown in 96-well plates and incubated at 37 °C in an atmosphere with 5% CO2 for the period necessary for achieving confluence. As a negative control, cells maintained in optimal growth conditions and not treated either with hydrogen peroxide or with curcumin were used; as a positive control, cells maintained in optimal growth conditions and treated with hydrogen peroxide, but not treated with curcumin, were used. The other cells were treated with hydrogen peroxide and, simultaneously, with curcumin in aqueous dispersion or carried in liposomes, nutriosomes and HPMC-nutriosomes. The cells were incubated for 4 hours, washed with PBS, and then cell survival was measured by means of a colorimetric test with tetrazolium salt, 3-(4,5-dimethylthiazol-2-yl)-2,5-diphenyltetrazolium bromide (MTT) (see annexed Figure 8). Cell viability was calculated as a percentage of the viability of the untreated cells (negative control).

[4] = Ascorbic acid release from vesicles by dialysis at pH 2 and pH 7; assay type: physicochemical; details: 37 °C
Experimental: The velocity (concentration as a function of time) at which the ascorbic acid is released from the vesicles as a function of pH (2 and 7) was measured as well. The dispersions (1 mL) were transferred into dialysis tubes Spectra-Por (300 kDa Float-A-Lyzer G2) immersed in 50 mL of a solution of HCl 0.1 M (pH 2), or in 50 mL of PBS (Phosphate Buffered Saline at pH 7), and maintained at 37 °C under constant stirring for 2 hours at pH 2 and for 6 hours at pH 7. A percentage of the sample was removed at predefined time intervals, and the ascorbic acid concentration was measured with a UV spectrophotometer. […] As aforementioned, release studies were carried out in order to evaluate the ability of the lamellar vesicles to retain and protect the ascorbic acid during the passage through the stomach (pH 2) and/or to retain/protect the same at the neutral pH of the intestine. […] The nutriosomes of the present invention, with or without the additional polymer HPMC, release a quantity of less than 20% after 20 minutes; subsequently, the HPMC-nutriosomes release the lowest percentage, ~40%, after 120 minutes.

In the case of COc1cc(C=CC(=O)CC(=O)C=Cc2ccc(O)c(OC)c2)ccc1O [curcumin in aqueous dispersion, 1,7-Bis(4-hydroxy-3-methoxyphenyl)hepta-1,6-diene-3,5-dione], the cell viability [1] is reported as “around 80%”, the “plasmatic concentration of curcumin” value [2] is reported as about 10 ng/mL and the cell viability [3] is reported as ~ 69%.

For O=C1O[C@H]([C@@H](O)CO)C(O)=C1O [aqueous solution, ascorbic acid], the ascorbic acid released ([4]; pH 2 (HCl 0.1 M), after 20 minutes) was “approximately 80%” and the ascorbic acid released ([4]; pH 7 (PBS), after 1 hour) was “about 80%”.
